Data taken from patent US12195434B2, “Process for the preparation of a chiral prostaglandin enol intermediate and intermediate compounds useful in the process” (EUROAPI HUNGARY LIMITED LIABILITY COMPANY, priority 2019, dated 2025).

Experiment: solubility of the PPB-enone isomers in crystallization solvents
Format: physicochemical
Method: The solubility (g/100 ml) of the PPB-enone isomers in some of the solvents with which crystallization was attempted is shown below: […]

solubility (DIPE, 23° C.) | solubility (DIPE, Reflux) | solubility (EtOH, 23° C.) | solubility (EtOH, Reflux) | solubility (MeOH, 23° C.) | solubility (MeOH, Reflux) | solubility (TBME, 23° C.) | solubility (TBME, Reflux) | solubility (iPrOH, 23° C.) | solubility (iPrOH, Reflux) | SMILES
in- | in- | 0.43 g/100 ml | 4.00 g/100 ml | 0.45 g/100 ml | 5.00 g/100 ml | 0.71 g/100 ml | 8.00 g/100 ml | 0.18 g/100 ml | 2.22 g/100 ml | Cc1cccc([C@@H](C)C(=O)/C=C/[C@@H]2[C@H]3CC(=O)O[C@H]3C[C@H]2OC(=O)c2ccc(-c3ccccc3)cc2)c1 [16-(R)-PPB-enone, [(3aR,4R,5R,6aS)-4-[(E,4R)-4-(m-tolyl)-3-oxo-pent-1-enyl]-2-oxo-3,3a,4,5,6,6a-hexahydrocyclopenta[b]furan-5-yl] 4-phenylbenzoate]
insoluble | in- | insoluble | 0.77 g/100 ml | insoluble | 0.91 g/100 ml | 0.14 g/100 ml | 0.33 g/100 ml | insoluble | 0.80 g/100 ml | Cc1cccc(C(C)C(=O)/C=C/[C@@H]2[C@H]3CC(=O)O[C@H]3C[C@H]2OC(=O)c2ccc(-c3ccccc3)cc2)c1 (stereo partly drawn) [16-(R,S)-PPB-enone, [(3aR,4R,5R,6aS)-4-[(E)-4-(m-tolyl)-3-oxo-pent-1-enyl]-2-oxo-3,3a,4,5,6,6a-hexahydrocyclopenta[b]furan-5-yl] 4-phenylbenzoate]
insoluble | 0.2 g/100 ml | insoluble | 0.33 g/100 ml | insoluble | 0.33 g/100 ml | insoluble | 0.13 g/100 ml | insoluble | 0.29 g/100 ml | Cc1cccc([C@H](C)C(=O)/C=C/[C@@H]2[C@H]3CC(=O)O[C@H]3C[C@H]2OC(=O)c2ccc(-c3ccccc3)cc2)c1 [16-(S)-PPB-enone, [(3aR,4R,5R,6aS)-4-[(E,4S)-4-(m-tolyl)-3-oxo-pent-1-enyl]-2-oxo-3,3a,4,5,6,6a-hexahydrocyclopenta[b]furan-5-yl] 4-phenylbenzoate]
